From patent US20110275670A1, “New Compounds VII” (priority 2008, published 2011)

Tests used:
JEG-3 cells [1] = assay: JEG-3 protocol: [3H]-thymidine incorporation (leptin assay in non-recombinant system); format: cell-based; conditions: FIG. 4
Protocol: In JEG-3 cells (choriocarcinoma cell line) leptin is able to stimulate proliferation up to 3 fold (Biol. Reprod. (2007) 76: 203-10). […] The radioactivity incorporated by the cells is an index of their proliferative activity and is measured in counts per minute (CPM) with a liquid scintillation beta counter.
This finding can be applied to test whether a compound is able to either reproduce the effect of leptin on cell proliferation (leptin receptor agonist mimetic) (i.e., a given compound will cause an increase in incorporated [^3H]-Thymidine by the cells) or to inhibit the effect of leptin (antagonistic effect) by preventing the leptin-mediated increase in [^3H]-thymidine incorporation.
This approach has the advantage of using a non-recombinant system and has reasonable reproducibility and robustness.

JEG-3 cells [2] = conditions: Biol. Reprod. (2007) 76: 203-10; cited from earlier work

EC50 (JEG-3 cells [1]; JEG-3 cells (choriocarcinoma cell line), read-out: EC50, concentration-dependent increase in [3H]-thymidine incorporation): 2.1 nM
Substance: Leptin: a hormone synthesized in fat cells that is believed to act in the hypothesis to reduce food intake and body weight
concentration of maximal effect on [3H]-thymidine incorporation (JEG-3 cells [1]; JEG-3 cells): 100 nM
stimulation of proliferation (JEG-3 cells [2]): up to 3 fold
